Molecular target: D(1A) dopamine receptor (Homo sapiens) (UniProt P21728)
Experiment: Hill slope was determined for the compound in D1 receptor binding assay

Chain of D(1A) dopamine receptor (Homo sapiens) (P21728 whole entry): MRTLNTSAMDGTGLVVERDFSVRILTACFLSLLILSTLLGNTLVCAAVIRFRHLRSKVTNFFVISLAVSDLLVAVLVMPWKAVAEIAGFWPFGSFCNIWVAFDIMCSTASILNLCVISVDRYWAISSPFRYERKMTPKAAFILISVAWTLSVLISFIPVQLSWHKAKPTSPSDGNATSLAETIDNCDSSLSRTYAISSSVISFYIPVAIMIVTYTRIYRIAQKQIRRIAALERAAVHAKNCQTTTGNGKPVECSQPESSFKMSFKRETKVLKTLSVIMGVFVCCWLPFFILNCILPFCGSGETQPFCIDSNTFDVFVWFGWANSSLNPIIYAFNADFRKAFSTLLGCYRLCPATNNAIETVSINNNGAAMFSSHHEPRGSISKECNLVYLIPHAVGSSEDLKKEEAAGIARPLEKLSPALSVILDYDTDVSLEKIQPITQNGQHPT

SMILES | nH
Oc1ccc2c(c1O)Cc1cccc3c1[C@H]2CNC3 | 0.66
Oc1cc2c(cc1O)[C@@H](c1ccccc1)CNCC2 | 0.75
Oc1cc2c(cc1O)[C@H]1c3ccccc3CN[C@@H]1CC2 | 0.65
CN1CCc2cc(Cl)c(O)cc2[C@@H](c2ccccc2)C1 | 1.05

Molecular target: D(2) dopamine receptor (Homo sapiens) (UniProt P14416)
Sequence (P14416 whole entry): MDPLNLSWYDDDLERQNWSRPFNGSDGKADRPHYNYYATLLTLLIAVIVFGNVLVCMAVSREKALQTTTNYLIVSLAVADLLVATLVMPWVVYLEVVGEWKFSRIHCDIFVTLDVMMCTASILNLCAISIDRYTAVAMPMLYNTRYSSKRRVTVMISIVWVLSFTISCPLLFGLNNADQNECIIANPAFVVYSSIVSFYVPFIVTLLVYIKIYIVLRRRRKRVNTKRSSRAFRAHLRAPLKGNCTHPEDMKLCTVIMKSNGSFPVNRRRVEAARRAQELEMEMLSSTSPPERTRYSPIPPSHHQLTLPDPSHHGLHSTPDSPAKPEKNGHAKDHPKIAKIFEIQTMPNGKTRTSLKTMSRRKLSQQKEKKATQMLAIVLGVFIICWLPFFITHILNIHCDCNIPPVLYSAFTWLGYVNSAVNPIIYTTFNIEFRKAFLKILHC
Description: Hill slope was determined for the compound in D2 receptor binding assay

SMILES | nH
CN(C)CCCN1c2ccccc2Sc2ccc(Cl)cc21 | 0.93
Oc1cc2c(cc1O)[C@H]1c3ccccc3CN[C@@H]1CC2 | 0.72

— ChEMBL document CHEMBL1129051, “9-Dihydroxy-2,3,7,11b-tetrahydro-1H-naph[1,2,3-de]isoquinoline: a potent full dopamine D1 agonist containing a rigid-beta-phenyldopamine pharmacophore” (J Med Chem, 1996)
